CC(=O)Oc1cc(C)c(OC(C)=O)c2ccccc12
solubility (mole fraction)
Settings | 283.1 K | 288.1 K | 293.1 K | 298.1 K | 303.1 K | 308.1 K | 313.1 K | 318.1 K | 323.1 K
in cyclohexanol | 0.00261 | 0.00403 | 0.00595 | 0.0082 | 0.0105 | 0.0138 | 0.0182 | 0.0245 | 0.033
in ethanol | 0.00323 | 0.00417 | 0.00532 | 0.00656 | 0.00839 | 0.0108 | 0.014 | 0.0184 | 0.0242
in ethyl acetate | 0.0691 | 0.0795 | 0.0907 | 0.103 | 0.118 | 0.135 | 0.156 | 0.179 | 0.204
in isobutanol | 0.00212 | 0.0029 | 0.00384 | 0.00526 | 0.00708 | 0.00958 | 0.0131 | 0.018 | 0.0249
in isopentanol | 0.00241 | 0.00329 | 0.00422 | 0.0056 | 0.00766 | 0.0102 | 0.0137 | 0.0183 | 0.025
in isopropanol | 0.00185 | 0.0025 | 0.00334 | 0.00444 | 0.00605 | 0.0081 | 0.011 | 0.0152 | 0.0209
in methanol | 0.00461 | 0.0057 | 0.0071 | 0.00877 | 0.0112 | 0.0139 | 0.0173 | 0.0221 | 0.032
in methyl acetate | 0.0839 | 0.096 | 0.109 | 0.123 | 0.14 | 0.159 | 0.178 | 0.198 | 0.22
in n-butanol | 0.00257 | 0.00352 | 0.00459 | 0.00595 | 0.00794 | 0.0104 | 0.0139 | 0.0185 | 0.0253
in n-butyl acetate | 0.0497 | 0.0573 | 0.0665 | 0.077 | 0.0897 | 0.105 | 0.122 | 0.142 | 0.165
in n-pentanol | 0.00266 | 0.00374 | 0.00498 | 0.00667 | 0.0092 | 0.0122 | 0.0164 | 0.0219 | 0.0288
in n-pentyl acetate | 0.0429 | 0.0501 | 0.0592 | 0.0681 | 0.0791 | 0.093 | 0.108 | 0.128 | 0.15
in n-propanol | 0.00265 | 0.00345 | 0.00473 | 0.00629 | 0.00799 | 0.0106 | 0.014 | 0.0186 | 0.0252
in n-propyl acetate | 0.0592 | 0.0673 | 0.0771 | 0.0895 | 0.104 | 0.12 | 0.138 | 0.159 | 0.183
